Source: US10770169B2, “Method of providing a treatment to a subject based on a dynamic pathway map” (THE REGENTS OF THE UNIVERSITY OF CALIFORNIA, priority 2010, dated 2020)
Like-named read-outs stand apart in the source and are kept apart here.

System: panel of 55 breast cancer cell lines
Assay: Cell growth inhibition assay (Cell Titer Glo, 72 h, 9 doses; GI50, TGI, LC50)
Assay type: cell-based, human
Details: Homo sapiens, read-out: GI50 (converted)
[1] = CAMA-1, CAMA1 cell line, censored GI50 values
[2] = HCC1500, HCC1500 cell line, censored GI50 values
[3] = HCC1806, HCC1806 cell line, censored GI50 values
[4] = HCC1954, HCC1954 cell line, censored GI50 values

For `CC(=O)O[C@H]1C(=O)[C@@]2(C)[C@H]([C@H](OC(=O)c3ccccc3)[C@]3(O)C[C@H](OC(=O)[C@H](O)[C@@H](NC(=O)c4ccccc4)c4ccccc4)C(C)=C1C3(C)C)[C@]1(OC(C)=O)CO[C@@H]1C[C@@H]2O` [Paclitaxel], the GI50 (600MPE cell line, censored GI50 values) was 0.0661 µM, the GI50 (AU565, AU565 cell line, censored GI50 values) was 0.00813 µM and the GI50 (AU565, cell line AU565) was 0.00813 µM. The GI50 (BT-474, BT474 cell line, censored GI50 values) was 0.0102 µM, the GI50 (BT-474, cell line BT474) was 0.0102 µM and the GI50 (BT-483, BT483 cell line, censored GI50 values) was 0.0347 µM. For the same compound, the GI50 (BT-483, cell line BT483) was 0.0347 µM, the GI50 [1] was 0.0112 µM and the GI50 (CAMA-1, cell line CAMA1) was 0.0112 µM. It also gave a GI50 (HCC38, cell line HCC38) of 0.00741 µM, a GI50 (HCC70, cell line HCC70) of 0.00813 µM and a GI50 (HCC202, cell line HCC202) of 0.00794 µM. The GI50 (HCC1143, HCC1143 cell line, censored GI50 values) was 0.017 µM, the GI50 (HCC1143, cell line HCC1143) was 0.017 µM and the GI50 (HCC1187, HCC1187 cell line, censored GI50 values) was 0.00891 µM. It also gave a GI50 (HCC1187, cell line HCC1187) of 0.00891 µM, a GI50 (HCC1395, HCC1395 cell line, censored GI50 values) of 0.0158 µM and a GI50 (HCC1395, cell line HCC1395) of 0.0158 µM. For the same compound, the GI50 (HCC1419, HCC1419 cell line, censored GI50 values) was 0.692 µM, the GI50 (HCC1419, cell line HCC1419) was 0.692 µM and the GI50 (HCC1428, HCC1428 cell line, censored GI50 values) was 16.6 µM. The GI50 (HCC1428, cell line HCC1428) was 16.6 µM, the GI50 [2] was 0.00794 µM and the GI50 (HCC1500, cell line HCC1500) was 0.00794 µM. It also gave a GI50 [3] of 0.00871 µM, a GI50 (HCC1806, cell line HCC1806) of 0.00871 µM and a GI50 [4] of 0.00708 µM. For the same compound, the GI50 (HCC1954, cell line HCC1954) was 0.00708 µM, the GI50 (MCF7, cell line MCF7) was 0.0162 µM and the GI50 (MDA-MB-231, cell line MDAMB231) was 0.00525 µM. The GI50 (MDA-MB-361, cell line MDAMB361) was 0.0132 µM, the GI50 (MDA-MB-415, cell line MDAMB415) was 0.00525 µM and the GI50 (MDA-MB-436, cell line MDAMB436) was 0.0427 µM. For the same compound, the GI50 (MDA-MB-453, cell line MDAMB453) was 0.0102 µM, the GI50 (MDA-MB-468, cell line MDAMB468) was 0.00871 µM and the GI50 (SK-BR-3, cell line SKBR3) was 0.0112 µM. It also gave a GI50 (SUM52PE, cell line SUM52PE) of 0.0049 µM, a GI50 (SUM149PT, cell line SUM149PT) of 0.00933 µM and a GI50 (SUM185PE, cell line SUM185PE) of 0.024 µM. The GI50 (SUM-159-PT, cell line SUM159PT) was 0.0151 µM, the GI50 (UACC-812, cell line UACC812) was 0.00912 µM and the GI50 (UACC-893, cell line UACC893) was 0.0117 µM. For the same compound, the GI50 (ZR-75-1, cell line ZR751) was 0.0275 µM, the GI50 (ZR-75-30, cell line ZR7530) was 0.0219 µM and the GI50 (ZR-75B, cell line ZR75B) was 0.00794 µM. For the same compound, the GI50 (cell line 600MPE) was 0.0661 µM, the GI50 (cell line HCC2185) was 0.00724 µM and the GI50 (cell line HCC3153) was 0.02 µM. The GI50 (cell line LY2) was 0.0105 µM, the GI50 (cell line MDAMB134V) was 0.01 µM and the GI50 (cell line MDAMB175V) was 0.0195 µM. For the same compound, the GI50 (cell line SUM1315MO) was 0.00617 µM.
For `Nc1nc2[nH]cc(CCc3ccc(C(=O)N[C@@H](CCC(=O)O)C(=O)O)cc3)c2c(=O)[nH]1` [Pemetrexed], the GI50 (AU565, cell line AU565) was 2950 µM, the GI50 (BT-474, cell line BT474) was 2950 µM and the GI50 (BT-483, cell line BT483) was 2950 µM. It also gave a GI50 (BT-549, cell line BT549) of 2950 µM, a GI50 [1] of 1480 µM and a GI50 (CAMA-1, cell line CAMA1) of 1480 µM. For the same compound, the GI50 (HCC38, cell line HCC38) was 2950 µM, the GI50 (HCC70, cell line HCC70) was 2950 µM and the GI50 (HCC202, HCC202 cell line, censored GI50 values) was 0.0209 µM. For the same compound, the GI50 (HCC202, cell line HCC202) was 0.0209 µM, the GI50 (HCC1143, cell line HCC1143) was 2950 µM and the GI50 (HCC1187, cell line HCC1187) was 2950 µM. The GI50 (HCC1419, cell line HCC1419) was 2950 µM, the GI50 (HCC1428, cell line HCC1428) was 2950 µM and the GI50 [2] was 0.501 µM. It also gave a GI50 (HCC1500, cell line HCC1500) of 0.501 µM, a GI50 [3] of 1480 µM and a GI50 (HCC1806, cell line HCC1806) of 1480 µM. The GI50 (HCC1937, HCC1937 cell line, censored GI50 values) was 155 µM, the GI50 (HCC1937, cell line HCC1937) was 155 µM and the GI50 [4] was 0.214 µM. The GI50 (HCC1954, cell line HCC1954) was 0.214 µM, the GI50 (LY2 cell line, censored GI50 values) was 0.468 µM and the GI50 (MCF7, cell line MCF7) was 2950 µM. For the same compound, the GI50 (MDA-MB-157, cell line MDAMB157) was 2950 µM, the GI50 (MDA-MB-361, MDAMB361 cell line, censored GI50 values) was 0.49 µM and the GI50 (MDA-MB-361, cell line MDAMB361) was 0.49 µM. For the same compound, the GI50 (MDA-MB-436, cell line MDAMB436) was 2950 µM, the GI50 (MDA-MB-453, MDAMB453 cell line, censored GI50 values) was 33.9 µM and the GI50 (MDA-MB-453, cell line MDAMB453) was 33.9 µM. For the same compound, the GI50 (MDA-MB-468, MDAMB468 cell line, censored GI50 values) was 1480 µM, the GI50 (MDA-MB-468, cell line MDAMB468) was 1480 µM and the GI50 (SK-BR-3, SKBR3 cell line, censored GI50 values) was 1480 µM. It also gave a GI50 (SK-BR-3, cell line SKBR3) of 1480 µM, a GI50 (SUM52PE, cell line SUM52PE) of 2950 µM and a GI50 (SUM185PE, cell line SUM185PE) of 2950 µM. The GI50 (T47D, cell line T47D) was 2950 µM, the GI50 (UACC-812, cell line UACC812) was 2950 µM and the GI50 (ZR-75-1, ZR751 cell line, censored GI50 values) was 204 µM. The GI50 (ZR-75-1, cell line ZR751) was 204 µM, the GI50 (cell line HCC2185) was 2950 µM and the GI50 (cell line HCC3153) was 2950 µM. The GI50 (cell line LY2) was 0.468 µM, the GI50 (cell line MDAMB134V) was 2950 µM and the GI50 (cell line SUM1315MO) was 2950 µM.
